Tested on: HCT116 colorectal cancer cells
Experiment: Cisplatin sensitization assay (96 h cell viability MTS);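 note: compound concentration needed to lower the Cisplatin-alone IC50 by a set fold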
Assay type: cell-based
Details: 96 h MTS, compound plus Cisplatin
Protocol: Compounds can be screened for their ability to sensitize HCT116 colorectal cancer cells to Cisplatin using a 96 h cell viability (MTS) assay. […] Compounds and Cisplatin are then both added simultaneously to the cell media in 2-fold serial dilutions from a top final concentration of 10 μM as a full matrix of concentrations in a final cell volume of 200 μl, and the cells are then incubated at 37° C. in 5% CO2. After 96 h, 40 μl of MTS reagent (Promega G358a) is added to each well and the cells are incubated for 1 h at 37° C. in 5% CO2.

Row | SMILES | Cisplatin Sensitization Assay
1 | Nc1nn2cc(F)cnc2c1C(=O)Nc1cnccc1-c1ccnnc1 [I-C-26, 2-amino-6-fluoro-N-(4-(pyridazin-4-yl)pyridin-3-yl)pyrazolo[1,5-a]pyrimidine-3-carboxamide] | ++ (Compounds with a Cisplatin sensitization value >0.02 μM but <0.2 μM are marked with “++.”)
2 | COc1ccc(-c2ccncc2NC(=O)c2c(N)nn3cc(F)cnc23)cn1 [I-C-27, 2-amino-6-fluoro-N-(6-methoxy-[3,4′-bipyridin]-3′-yl)pyrazolo[1,5-a]pyrimidine-3-carboxamide] | ++ (Compounds with a Cisplatin sensitization value >0.02 μM but <0.2 μM are marked with “++.”)
3 | Cc1cnccc1-c1ccncc1NC(=O)c1c(N)nn2cc(F)cnc12 [I-C-29, 2-amino-6-fluoro-N-(3′-methyl-[4,4′-bipyridin]-3-yl)pyrazolo[1,5-a]pyrimidine-3-carboxamide] | +++ (Compounds with a Cisplatin sensitization value of <0.02 μM are marked with “+++.”)
4 | Cc1ccncc1-c1ccncc1NC(=O)c1c(N)nn2cc(F)cnc12 [I-C-30, 2-amino-6-fluoro-N-(4-methyl-[3,4′-bipyridin]-3′-yl)pyrazolo[1,5-a]pyrimidine-3-carboxamide] | +++ (Compounds with a Cisplatin sensitization value of <0.02 μM are marked with “+++.”)
5 | Cc1nnccc1-c1ccncc1NC(=O)c1c(N)nn2cc(F)cnc12 [I-C-31, 2-amino-6-fluoro-N-(4-(3-methylpyridazin-4-yl)pyridin-3-yl)pyrazolo[1,5-a]pyrimidine-3-carboxamide] | +++ (Compounds with a Cisplatin sensitization value of <0.02 μM are marked with “+++.”)
6 | Cc1ccnnc1-c1ccncc1NC(=O)c1c(N)nn2cc(F)cnc12 [I-C-33, 2-amino-6-fluoro-N-(4-(4-methylpyridazin-3-yl)pyridin-3-yl)pyrazolo[1,5-a]pyrimidine-3-carboxamide] | + (Compounds with a Cisplatin sensitization value >0.2 μM but <5 μM are marked with “+.”)
7 | Cc1nc(F)ccc1-c1ccncc1NC(=O)c1c(N)nn2cc(F)cnc12 [I-C-34, 2-amino-6-fluoro-N-(6-fluoro-2-methyl-[3,4′-bipyridin]-3′-yl)pyrazolo[1,5-a]pyrimidine-3-carboxamide] | +++ (Compounds with a Cisplatin sensitization value of <0.02 μM are marked with “+++.”)
8 | Nc1nn2cc(F)cnc2c1C(=O)Nc1cnccc1-c1cccnc1F [I-C-35, 2-amino-6-fluoro-N-(2-fluoro-[3,4′-bipyridin]-3′-yl)pyrazolo[1,5-a]pyrimidine-3-carboxamide] | +++ (Compounds with a Cisplatin sensitization value of <0.02 μM are marked with “+++.”)
9 | Cc1cccnc1-c1ccncc1NC(=O)c1c(N)nn2cc(F)cnc12 [I-C-36, 2-amino-6-fluoro-N-(3-methyl-[2,4′-bipyridin]-3′-yl)pyrazolo[1,5-a]pyrimidine-3-carboxamide] | +++ (Compounds with a Cisplatin sensitization value of <0.02 μM are marked with “+++.”)
10 | Nc1nn2cc(F)cnc2c1C(=O)Nc1cnccc1-c1cccnc1Cl [I-C-37, 2-amino-N-(2-chloro-[3,4′-bipyridin]-3′-yl)-6-fluoropyrazolo[1,5-a]pyrimidine-3-carboxamide] | +++ (Compounds with a Cisplatin sensitization value of <0.02 μM are marked with “+++.”)
11 | CN1CCC(C(=O)N2CC=C(c3c(F)cncc3NC(=O)c3c(N)nn4cc(F)cnc34)CC2)CC1 [I-C-38, 2-amino-6-fluoro-N-(5-fluoro-1′-(1-methylpiperidine-4-carbonyl)-1′,2′,3′,6′-tetrahydro-[4,4′-bipyridin]-3-yl)pyrazolo[1,5-a]pyrimidine-3-carboxamide] | ++ (Compounds with a Cisplatin sensitization value >0.02 μM but <0.2 μM are marked with “++.”)
12 | Cc1nc(C(=O)N2CCN(C)CC2)ccc1-c1ccncc1NC(=O)c1c(N)nn2cc(F)cnc12 [I-C-39, 2-amino-6-fluoro-N-(2-methyl-6-(4-methylpiperazine-1-carbonyl)-[3,4′-bipyridin]-3′-yl)pyrazolo[1,5-a]pyrimidine-3-carboxamide] | +++ (Compounds with a Cisplatin sensitization value of <0.02 μM are marked with “+++.”)
13 | Cc1nc(N2CCN(C)CC2)ccc1-c1ccncc1NC(=O)c1c(N)nn2cc(F)cnc12 [I-C-40, 2-amino-6-fluoro-N-(2-methyl-6-(4-methylpiperazin-1-yl)-[3,4′-bipyridin]-3′-yl)pyrazolo[1,5-a]pyrimidine-3-carboxamide] | +++ (Compounds with a Cisplatin sensitization value of <0.02 μM are marked with “+++.”)
14 | Cc1nc(O[C@@H]2CCN(C)C2)ccc1-c1ccncc1NC(=O)c1c(N)nn2cc(F)cnc12 [I-C-41, (R)-2-amino-6-fluoro-N-(2-methyl-6-((1-methylpyrrolidin-3-yl)oxy)-[3,4′-bipyridin]-3′-yl)pyrazolo[1,5-a]pyrimidine-3-carboxamide] | +++ (Compounds with a Cisplatin sensitization value of <0.02 μM are marked with “+++.”)
15 | Nc1nn2cc(F)cnc2c1C(=O)Nc1cnccc1C1CC1 [I-C-42, 2-amino-N-(4-cyclopropylpyridin-3-yl)-6-fluoropyrazolo[1,5-a]pyrimidine-3-carboxamide] | ++ (Compounds with a Cisplatin sensitization value >0.02 μM but <0.2 μM are marked with “++.”)
16 | CN1CCN(C(=O)c2ccc(-c3c(F)cncc3NC(=O)c3c(N)nn4cc(F)cnc34)cc2)CC1 [I-C-43, 2-amino-6-fluoro-N-(5-fluoro-4-(4-(4-methylpiperazine-1-carbonyl)phenyl)pyridin-3-yl)pyrazolo[1,5-a]pyrimidine-3-carboxamide] | +++ (Compounds with a Cisplatin sensitization value of <0.02 μM are marked with “+++.”)
17 | Nc1nn2cc(F)cnc2c1C(=O)Nc1cnccc1-c1ccc(C(=O)N2CCNCC2)cc1 [I-C-44, 2-amino-6-fluoro-N-(4-(4-(piperazine-1-carbonyl)phenyl)pyridin-3-yl)pyrazolo[1,5-a]pyrimidine-3-carboxamide] | +++ (Compounds with a Cisplatin sensitization value of <0.02 μM are marked with “+++.”)
18 | Cc1cc(C(=O)N2CCN(C)CC2)ccc1-c1ccncc1NC(=O)c1c(N)nn2cc(F)cnc12 [I-C-45, 2-amino-6-fluoro-N-(4-(2-methyl-4-(4-methylpiperazine-1-carbonyl)phenyl)pyridin-3-yl)pyrazolo[1,5-a]pyrimidine-3-carboxamide] | +++ (Compounds with a Cisplatin sensitization value of <0.02 μM are marked with “+++.”)
19 | CN1CCN(C(=O)c2cnc(-c3ccncc3NC(=O)c3c(N)nn4cc(F)cnc34)c(Cl)c2)CC1 [I-C-46, 2-amino-N-(3-chloro-5-(4-methylpiperazine-1-carbonyl)-[2,4′-bipyridin]-3′-yl)-6-fluoropyrazolo[1,5-a]pyrimidine-3-carboxamide] | + (Compounds with a Cisplatin sensitization value >0.2 μM but <5 μM are marked with “+.”)
20 | Nc1nn2cc(F)cnc2c1C(=O)Nc1cnccc1C1CCN(S(=O)(=O)C2CC2)CC1 [I-C-47, 2-amino-N-(4-(1-(cyclopropylsulfonyl)piperidin-4-yl)pyridin-3-yl)-6-fluoropyrazolo[1,5-a]pyrimidine-3-carboxamide] | +++ (Compounds with a Cisplatin sensitization value of <0.02 μM are marked with “+++.”)

From patent US10787452B2 (Vertex Pharmaceuticals Incorporated, priority 2012, dated 2020)
